{
  "source": "paper PMC4059138",
  "about": "“Structural Basis for Multiple Sugar Recognition of Jacalin-related Human ZG16p Lectin*^([image sbox.jpg])” (The Journal of Biological Chemistry, 2014)",
  "molecules": {"B1": {"name": "Man-α-O-heptapeptide Val-Glu-Pro-(Man-α-O-Thr)-Ala-Val-Ala (peptide)", "peptide": "VEPT(αMan)AVA", "notes": "Glycopeptide; also called Man-O-peptide; source: synthetic peptide (solid phase, Fmoc; HPLC and Sephadex G-15)"}},
  "key": {"[1]": {"biological_target": "T1, 15N-labeled human ZG16p(21–167) (Homo sapiens, UniProt O60844)", "T1 construct": "gene ZG16; residues 21-167 (signal peptide removed), 15N-labelled, E. coli pCold-PDI vector, tag removed as for the other construct; the purification says 21-159 for the same labelled protein; monomer", "T1 sequence (O60844 21-167)": "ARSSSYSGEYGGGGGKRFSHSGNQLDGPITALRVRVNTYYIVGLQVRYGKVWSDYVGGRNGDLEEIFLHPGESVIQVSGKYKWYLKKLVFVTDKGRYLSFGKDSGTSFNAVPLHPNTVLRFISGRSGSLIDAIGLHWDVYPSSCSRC", "assay": "1H-15N HSQC NMR titration", "assay_type": "binding", "excerpt": "1H-15N HSQC NMR titration on 15N-labeled human ZG16p(21–167)"}, "human ZG16p(21–159) [2]": {"biological_target": "T2, human ZG16p(21–159) (Homo sapiens, UniProt O60844)", "T2 construct": "gene ZG16; residues 21-159, expressed in E. coli as (His)6-MBP fusion, tag removed by TEV protease; monomer", "T2 sequence (O60844 21-159)": "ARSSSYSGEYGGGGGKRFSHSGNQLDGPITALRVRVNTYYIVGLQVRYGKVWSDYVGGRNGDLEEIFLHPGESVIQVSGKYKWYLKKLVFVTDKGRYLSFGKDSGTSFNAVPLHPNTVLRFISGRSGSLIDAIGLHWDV", "assay": "X-ray crystallography, soaking, […] Å", "conditions": "pH 6.5; mannose-binding pocket"}, "human ZG16p(21–159) [3]": {"biological_target": "T2, human ZG16p(21–159)", "assay": "X-ray crystallography, soaking, […] Å", "conditions": "pH 6.5; mannose-binding pocket", "remark": "listed apart in the source"}, "[4]": {"biological_target": "T3, Human ZG16p(21–167), 15N-labeled (human, UniProt O60844 21-167, uniformly 15N-labeled)", "T3 construct": "zymogen granule protein 16 (ZG16p), human, residues 21-167; the same paragraph also calls the 15N-labeled protein ZG16p(21–159); also called zymogen granule protein 16; 15N-labeled ZG16p; source: E. coli, pCold-PDI vector, 15N-labeled Spectra 9 medium, purified (Ni-Sepharose, size exclusion chromatography)", "T3 sequence (looked up)": "T1 sequence (O60844 21-167)", "assay": "NMR titration; 1H-15N HSQC of 0.1–0.15 mM 15N-labeled ZG16p with increasing amounts of ligand; 298 K; PBS, pH 6.5, 10% D2O; Kd fitted from chemical shift changes (n = 3)", "conditions": "both partners purified"}, "[5]": {"conditions": "PBS pH 6.5, 10% D2O, 298 K, mannose-binding pocket"}},
  "note": "Like-named read-outs stand apart in the source and are kept apart here. No end group written: not given here. *: point of attachment. αMan = OC[C@H]1O[C@H](*)[C@@H](O)[C@@H](O)[C@@H]1O",
  "data": [
    {"molecule": "OC[C@H]1O[C@@H](O[C@H]2[C@H](O)[C@@H](CO)OC(O)[C@@H]2O)[C@H](O)[C@@H](O)[C@@H]1O", "note": "(stereo partly shown) [Glcβ1–3Glc]", "values": [
      {"measurement": "Kd", "setting": "[1]; [5]", "value": "7 ± 4", "unit": "mM"}
    ]},
    {"molecule": "N[C@@H](CO[C@H]1O[C@H](CO)[C@@H](O)[C@H](O)[C@@H]1O)C(=O)O", "note": "[Man-O-Ser]", "values": [
      {"measurement": "X-ray crystallography, soaking, 2.1 Å", "setting": "human ZG16p(21–159) [2]", "value": "structures of human ZG16p in complex with Man-O-Ser and Man-O-Thr were determined"}
    ]},
    {"molecule": "C[C@@H](O[C@H]1O[C@H](CO)[C@@H](O)[C@H](O)[C@@H]1O)[C@H](N)C(=O)O", "note": "[Man-O-Thr]", "values": [
      {"measurement": "Kd", "setting": "[1]", "value": "19 ± 11", "unit": "mM"},
      {"measurement": "X-ray crystallography, soaking, 2.7 Å", "setting": "human ZG16p(21–159) [3]", "value": "structures of human ZG16p in complex with Man-O-Ser and Man-O-Thr were determined"}
    ]},
    {"molecule": "OC[C@H]1O[C@H](O[C@H]2[C@H](O)[C@@H](CO)OC(O)[C@H]2O)[C@@H](O)[C@@H](O)[C@@H]1O", "note": "(stereo partly shown) [Manα1–3Man]", "values": [
      {"measurement": "Kd", "setting": "[1]; [5]", "value": "13 ± 7", "unit": "mM"}
    ]},
    {"molecule": "Heparin tetrasaccharide", "values": [
      {"measurement": "Kd", "setting": "[1]; PBS pH 6.5, 10% D2O, 298 K, heparin site on flat surface adjacent to the mannose pocket", "value": "2 ± 1", "unit": "mM"}
    ]},
    {"molecule": "B1", "values": [
      {"measurement": "Kd", "setting": "[4]", "value": 3, "unit": "mM"}
    ]}
  ]
}
